In ChEMBL document CHEMBL4610081, “Anti-inflammatory Metabolites from Chaetomium nigricolor” (J Nat Prod, 2020):
Activity calls are given as the source filed them. The rule behind the calls is not given here.

Tested on: RAW264.7
Assay: Antiinflammatory activity against mouse RAW264.7 cells assessed as inhibition of LPS-induced NO production preincubated for 3 hrs followed by LPS-stimulation and measured after 24 hrs by Griess reagent based assay
Type: functional, cell-based

Question: For `COc1cc(OC)c2c(O)c3c(=O)cc(C)oc3c(-c3c(OC)cc4cc(O)c5c(=O)cc(C)oc5c4c3OC)c2c1` (atropisomer aS) [FONSECINONE A], which Activity is on record?
Answer: Dose-dependent effect

Question: And the IC50?
Answer: 7 µM

Question: Which Activity does the source give for `COC(=O)/C=C/C(=O)O` here?
Answer: inactive
